Consider 16 compounds from US20250154169A1, “COMPOUNDS AND METHODS FOR MODULATING SPLICING” (REMIX THERAPEUTICS INC., priority 2021, published 2025).

Read-outs that look alike come from different tables or passages of the source.

Type in all cases: cell-based, human
Test [1] relates to Target C mRNA. Description: Splicing RT-qPCR gene panel, Target C canonical junction (CJ) mRNA. The conditions noted are these: Homo sapiens, Tables 4A/4B, read-out: Target C (IC50, decrease in CJ mRNA, gene panel). In a few lines:
(§1)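 Canonical-junction mRNA levels were quantified by RT-qPCR in lysates, using ΔΔCt against a housekeeping gene (GAPDH, GUSB or PPIA) and DMSO wells, expressed as percentage response. Cells (A673 or K562) had been exposed for 24 h at 37° C. to 11 three-fold compound concentrations up to 10 uM, DMSO ≤0.25%.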
Background: Real-time PCR tracks product formation cycle by cycle.

Test [2] deals with HTT mRNA. The test can be described thus: Splicing RT-qPCR assay, HTT canonical (CJ) and alternative (AJ) junction mRNA. To be noted: Homo sapiens, A673 or K562 cells, 24 hours compound treatment; for IC50: 24 h, read-out: HTT CJ (IC50, decrease in canonical junction mRNA); for AC50: read-out: HTT AJ (AC50, increase in alternative junction mRNA). In a few lines: (§2)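 Read-out is the abundance of canonical-junction versus new alternative-exon-junction mRNA, determined by real-time qPCR after cDNA synthesis and normalized to a housekeeping gene. It is measured in A673 or K562 cells exposed to compounds for 24 h, top dose 10 uM.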

Test [3] deals with HTT mRNA. Description: Splicing RT-qPCR gene panel, HTT canonical junction (CJ) mRNA. To be noted: Homo sapiens, Tables 4A/4B, read-out: HTT (IC50, decrease in CJ mRNA, gene panel). In a few lines:
as §1

In test [4] the test system is SMN2 mRNA. The test can be described thus: Splicing RT-qPCR gene panel, SMN2 canonical junction (CJ) mRNA. The conditions noted are these: Homo sapiens, Tables 4A/4B, read-out: SMN2 (IC50, decrease in CJ mRNA, gene panel). In a few lines: as §1
For test [5], the system named is MYB mRNA. Description: Splicing RT-qPCR assay, MYB canonical (CJ) and alternative (AJ) junction mRNA. To be noted: Homo sapiens; for AC50: read-out: MYB AJ (AC50, increase in alternative junction mRNA). In a few lines: as §2
Setting [6] is: 24 h, A673 or K562 cells, 24 hours compound treatment, RT-qPCR.
The mark [7] stands for this setting: 24 h, A673 or K562 cells, 24 hours compound treatment, RT-qPCR, read-out: MYB CJ (IC50, decrease in canonical junction mRNA).
[8] abbreviates: Tables 4A/4B, canonical junction qPCR panel, read-out: MYB (IC50, decrease in CJ mRNA, gene panel).

As usually defined, the IC50 is the concentration needed to halve the response being measured. Usually AC50 stands for the midpoint of the concentration-response curve, whichever way the signal moves.

Take `CCn1cc2c(N3CCN4C(=O)OCC4C3)ccc(C(=O)Nc3cc(F)c4nc(C)cn4c3)c2n1` (centres unmarked) [Compound 415, 2-ethyl-N-{8-fluoro-2-methylimidazo[1,2-a]pyridin-6-yl}-4-{3-oxo-tetrahydro-1H-[1,3]oxazolo[3,4-a]pyrazin-7-yl}indazole-7-carboxamide]: the IC50 in test [1], in test [2], in test [3], in test [4], in test [5] (setting [7]) and in test [5] (setting [8]) was 100 to 1000 nM throughout. The AC50 in test [2] and in test [5] (setting [6]) was 100 to 1000 nM throughout.
Turning to `C=C(C)n1ncc2c(N3CCNCC3)ccc(C(=O)Nc3cc(F)c4nc(C)cn4c3)c21` [Compound 416, N-(8-fluoro-2-methylimidazo[1,2-a]pyridin-6-yl)-4-(piperazin-1-yl)-1-(prop-1-en-2-yl)-1H-indazole-7-carboxamide], the IC50 is greater than 10000 nM in test [1]; greater than 10000 nM in test [2]; greater than 10000 nM in test [3]; 1000 to 10000 nM in test [4]; greater than 10000 nM in test [5] (setting [7]); greater than 10000 nM in test [5] (setting [8]). Further, the half-maximal activity concentration (AC50) in test [2] and in test [5] (setting [6]) was greater than 10000 nM each time.
For `CNC1CCN(c2ccc(C(=O)Nc3cn4cc(C)nc4c(OC)n3)c3nn(C)cc23)C1` (centres unmarked) [Compound 417], the IC50 in test [1] was greater than 10000 nM; in test [2], 1000 to 10000 nM; in test [3], greater than 10000 nM; in test [4] it was less than 100 nM; in test [5] (setting [7]) it was less than 100 nM; in test [5] (setting [8]), less than 100 nM. Further, the AC50 in test [2] is greater than 10000 nM; in test [5] (setting [6]) it was less than 100 nM.
On to `CNC1CCN(c2ccc(C(=O)Nc3cn4cc(C)nc4c(OC)n3)c3nn(CCOC)cc23)C1` (centres unmarked) [Compound 418, N-{8-methoxy-2-methylimidazo[1,2-a]pyrazin-6-yl}-2-(2-methoxyethyl)-4-[3-(methylamino)pyrrolidin-1-yl]indazole-7-carboxamide], for which the IC50 is greater than 10000 nM in test [1]; greater than 10000 nM in test [2]; greater than 10000 nM in test [3]; less than 100 nM in test [4]; 100 to 1000 nM in test [5] (setting [7]); 100 to 1000 nM in test [5] (setting [8]). For the same compound, the half-maximal activity concentration (AC50) was greater than 10000 nM in test [2] and 1000 to 10000 nM in test [5] (setting [6]).
`CNC1CCN(c2ccc(C(=O)Nc3cn4cc(C)nc4c(N(C)C)n3)c3nn(C)cc23)C1` (centres unmarked) [Compound 419, N-[8-(dimethylamino)-2-methylimidazo[1,2-a]pyrazin-6-yl]-2-methyl-4-[3-(methylamino)pyrrolidin-1-yl]indazole-7-carboxamide]: the IC50 in test [1], in test [2], in test [3], in test [4], in test [5] (setting [7]) and in test [5] (setting [8]) was greater than 10000 nM in each case. Further, the AC50 in test [2] and in test [5] (setting [6]) was greater than 10000 nM in each case.
Turning to `CCOc1nc(NC(=O)c2ccc(N3CCC(NC)C3)c3cn(C)nc23)cn2cc(C)nc12` (centres unmarked) [Compound 420, N-{8-ethoxy-2-methylimidazo[1,2-a]pyrazin-6-yl}-2-methyl-4-[3-(methylamino)pyrrolidin-1-yl]indazole-7-carboxamide], the IC50 in test [1] was greater than 10000 nM; in test [2], greater than 10000 nM; in test [3] it was greater than 10000 nM; in test [4], less than 100 nM; in test [5] (setting [7]), 100 to 1000 nM; in test [5] (setting [8]), 100 to 1000 nM. Also, the AC50 in test [2] was greater than 10000 nM; in test [5] (setting [6]), 100 to 1000 nM.
Take `Cc1cc2nc(NC(=O)c3ccc(N4CCNCC4)c4cn(C)nc34)cc(C)n2n1` [Compound 421, N-{2,7-dimethylpyrazolo[1,5-a]pyrimidin-5-yl}-2-methyl-4-(piperazin-1-yl) indazole-7-carboxamide]: the IC50 in test [1], in test [2], in test [3], in test [4], in test [5] (setting [7]) and in test [5] (setting [8]) was greater than 10000 nM each time. The AC50 in test [2] and in test [5] (setting [6]) was greater than 10000 nM each time.
For `CCn1cc2c(N3CCC(C)(NC)CC3)ccc(C(=O)Nc3cc(F)c4nc(C)cn4c3)c2n1` [Compound 423, 2-ethyl-N-{8-fluoro-2-methylimidazo[1,2-a]pyridin-6-yl}-4-[4-methyl-4-(methylamino)piperidin-1-yl]indazole-7-carboxamide], the IC50 in test [1] was 1000 to 10000 nM; in test [2] it was 100 to 1000 nM; in test [3] it was 100 to 1000 nM; in test [4] it was less than 100 nM; in test [5] (setting [7]) it was less than 100 nM; in test [5] (setting [8]), less than 100 nM. Besides, the half-maximal activity concentration (AC50) in test [2] was 100 to 1000 nM; in test [5] (setting [6]), less than 100 nM.
As to `COC1CC(n2cc3c(N4CCNCC4)ccc(C(=O)Nc4cc(F)c5nc(C)cn5c4)c3n2)C1` (centres unmarked) [Compound 424], the 50% inhibitory concentration (IC50) in test [1] was greater than 10000 nM; in test [2], greater than 10000 nM; in test [3], greater than 10000 nM; in test [4] it was 1000 to 10000 nM; in test [5] (setting [7]) it was greater than 10000 nM; in test [5] (setting [8]), greater than 10000 nM. Besides, the AC50 in test [2] and in test [5] (setting [6]) was greater than 10000 nM each time.
Consider `CN[C@@H]1CCN(c2ccc(C(=O)Nc3cn4cc(C)nc4c(N(C)C)n3)c3nn(C)cc23)C1` [Compound 425], for which the half-maximal inhibitory concentration (IC50) in test [1], in test [2], in test [3], in test [4], in test [5] (setting [7]) and in test [5] (setting [8]) was greater than 10000 nM each time. The AC50 in test [2] and in test [5] (setting [6]) was greater than 10000 nM throughout.
Consider `CN[C@H]1CCN(c2ccc(C(=O)Nc3cn4cc(C)nc4c(N(C)C)n3)c3nn(C)cc23)C1` [Compound 426], for which the IC50 in test [1], in test [2], in test [3], in test [4], in test [5] (setting [7]) and in test [5] (setting [8]) was greater than 10000 nM throughout. In addition, the AC50 in test [2] and in test [5] (setting [6]) was greater than 10000 nM in each case.
As to `Cc1cn2cc(NC(=O)c3ccc(N4CCNCC4)c4nn(C)nc34)cc(F)c2n1` [Compound 427, N-{8-fluoro-2-methylimidazo[1,2-a]pyridin-6-yl}-2-methyl-7-(piperazin-1-yl)-1,2,3-benzotriazole-4-carboxamide], the half-maximal inhibitory concentration (IC50) in test [1] was 1000 to 10000 nM; in test [2], 100 to 1000 nM; in test [3] it was 100 to 1000 nM; in test [4] it was less than 100 nM; in test [5] (setting [7]) it was 100 to 1000 nM; in test [5] (setting [8]), 100 to 1000 nM. Further, the AC50 in test [2] and in test [5] (setting [6]) was 100 to 1000 nM each time.
Take `COc1c(NC(=O)c2ccc(N3CCNCC3)c3oc(C)nc23)cn2cc(C)nc2c1F` [Compound 428, N-{8-fluoro-7-methoxy-2-methylimidazo[1,2-a]pyridin-6-yl}-2-methyl-7-(piperazin-1-yl)-1,3-benzoxazole-4-carboxamide]: the IC50 in test [1] is 100 to 1000 nM; in test [2], less than 100 nM; in test [3], less than 100 nM; in test [4] it was less than 100 nM; in test [5] (setting [7]), less than 100 nM; in test [5] (setting [8]), less than 100 nM. Also, the concentration at half-maximal activity (AC50) in test [2] and in test [5] (setting [6]) was less than 100 nM in each case.
As for `CCn1cc2c(N3CCN[C@@H](CO)C3)ccc(C(=O)Nc3cc(F)c4nc(C)cn4c3)c2n1` [Compound 429, (R)-2-ethyl-N-(8-fluoro-2-methylimidazo[1,2-a]pyridin-6-yl)-4-(3-(hydroxymethyl)piperazin-1-yl)-2H-indazole-7-carboxamide], the IC50 in test [1] was greater than 10000 nM; in test [2], 1000 to 10000 nM; in test [3] it was 1000 to 10000 nM; in test [4], less than 100 nM; in test [5] (setting [7]) it was 100 to 1000 nM; in test [5] (setting [8]), 100 to 1000 nM. The concentration at half-maximal activity (AC50) lay within 1000 to 10000 nM in test [2] and 100 to 1000 nM in test [5] (setting [6]).
Consider `CCn1cc2c(N3CCN[C@H](CO)C3)ccc(C(=O)Nc3cc(F)c4nc(C)cn4c3)c2n1` [Compound 430, (S)-2-ethyl-N-(8-fluoro-2-methylimidazo[1,2-a]pyridin-6-yl)-4-(3-(hydroxymethyl)piperazin-1-yl)-2H-indazole-7-carboxamide], for which the concentration for half-maximal inhibition (IC50) in test [1] is greater than 10000 nM; in test [2] it was 1000 to 10000 nM; in test [3], 1000 to 10000 nM; in test [4], less than 100 nM; in test [5] (setting [7]), less than 100 nM; in test [5] (setting [8]), less than 100 nM. Moreover, the AC50 is 1000 to 10000 nM in test [2] and less than 100 nM in test [5] (setting [6]).
For the compound `CN[C@@H]1CCN(c2ccc(C(=O)Nc3cn4cc(C)nc4c(OC)n3)c3nn(CCOC)cc23)C1` [Compound 431, (R)—N-(8-methoxy-2-methylimidazo[1,2-a]pyrazin-6-yl)-2-(2-methoxyethyl)-4-(3-(methylamino)pyrrolidin-1-yl)-2H-indazole-7-carboxamide], the IC50 in test [1] is 1000 to 10000 nM; in test [2], greater than 10000 nM; in test [3], 1000 to 10000 nM; in test [4], less than 100 nM; in test [5] (setting [7]), 100 to 1000 nM; in test [5] (setting [8]) it was less than 100 nM. Besides, the AC50 is greater than 10000 nM in test [2] and 100 to 1000 nM in test [5] (setting [6]).
